US11186587B2, “Compound as ACC inhibitor and use thereof” (NANJING SANHOME PHARMACEUTICAL CO., LTD., priority 2017, dated 2021)

How the values were obtained:
[1] = molecular target: ACC2 (Homo sapiens (Human), UniProt O00763); assay: ACC2 enzyme activity assay (ADP-Glo); format: biochemical; settings: ACC2 enzyme 1.1 nM working solution, room temperature
Method: (§1) Compound preparation: the compounds of the present disclosure prepared in the above examples and the control compound were respectively formulated into 10 mM with DMSO for use.
(§2) Preparation of 1× reaction buffer (pH=7.4): HEPES stock solutions (1 M), MgCl2 (1 M), BRIJ-35 (10%), potassium citrate buffer (1 M), BSA (10 mg/mL) and DTT (500 mM) were formulated to enzyme reaction buffer containing HEPES (50 mM), MgCl2 (2 mM), BRIJ-35 (0.01%), potassium citrate buffer (2 mM), BSA (50 Gg/mL) and DTT (2 mM).
The mixture was incubated at room temperature for 15 min.
(§3) Negative control group: menstruum containing 5% DMSO; positive control group: menstruum containing 100 nM ND-630. The average values of each concentration and the positive and negative controls were calculated, and the standard deviation was calculated. […] The inhibition rate data was fitted by nonlinear regression equation to calculate IC50 of each compound. The nonlinear regression equation was Y=lowest value+(highest value−lowest value)/(1+10^((Log IC50−X)×HillSlope)), among which X is logarithm of the compound concentration and Y is inhibition percent (%).

[2] = molecular target: ACC1 (Homo sapiens (Human), UniProt Q13085); assay: ACC1 enzyme activity assay (ADP-Glo); format: biochemical; settings: ACC1 enzyme 2 nM working solution, room temperature
Method: as §1, §2
4.5 μL of 2.2×ACC1 enzyme (2 nM) working solution was added to a 384-well plate; and then 0.5 μL of different concentrations of compound were added. The mixture was incubated at room temperature for 15 min.
as §3

ACC2, sequence (O00763 whole entry): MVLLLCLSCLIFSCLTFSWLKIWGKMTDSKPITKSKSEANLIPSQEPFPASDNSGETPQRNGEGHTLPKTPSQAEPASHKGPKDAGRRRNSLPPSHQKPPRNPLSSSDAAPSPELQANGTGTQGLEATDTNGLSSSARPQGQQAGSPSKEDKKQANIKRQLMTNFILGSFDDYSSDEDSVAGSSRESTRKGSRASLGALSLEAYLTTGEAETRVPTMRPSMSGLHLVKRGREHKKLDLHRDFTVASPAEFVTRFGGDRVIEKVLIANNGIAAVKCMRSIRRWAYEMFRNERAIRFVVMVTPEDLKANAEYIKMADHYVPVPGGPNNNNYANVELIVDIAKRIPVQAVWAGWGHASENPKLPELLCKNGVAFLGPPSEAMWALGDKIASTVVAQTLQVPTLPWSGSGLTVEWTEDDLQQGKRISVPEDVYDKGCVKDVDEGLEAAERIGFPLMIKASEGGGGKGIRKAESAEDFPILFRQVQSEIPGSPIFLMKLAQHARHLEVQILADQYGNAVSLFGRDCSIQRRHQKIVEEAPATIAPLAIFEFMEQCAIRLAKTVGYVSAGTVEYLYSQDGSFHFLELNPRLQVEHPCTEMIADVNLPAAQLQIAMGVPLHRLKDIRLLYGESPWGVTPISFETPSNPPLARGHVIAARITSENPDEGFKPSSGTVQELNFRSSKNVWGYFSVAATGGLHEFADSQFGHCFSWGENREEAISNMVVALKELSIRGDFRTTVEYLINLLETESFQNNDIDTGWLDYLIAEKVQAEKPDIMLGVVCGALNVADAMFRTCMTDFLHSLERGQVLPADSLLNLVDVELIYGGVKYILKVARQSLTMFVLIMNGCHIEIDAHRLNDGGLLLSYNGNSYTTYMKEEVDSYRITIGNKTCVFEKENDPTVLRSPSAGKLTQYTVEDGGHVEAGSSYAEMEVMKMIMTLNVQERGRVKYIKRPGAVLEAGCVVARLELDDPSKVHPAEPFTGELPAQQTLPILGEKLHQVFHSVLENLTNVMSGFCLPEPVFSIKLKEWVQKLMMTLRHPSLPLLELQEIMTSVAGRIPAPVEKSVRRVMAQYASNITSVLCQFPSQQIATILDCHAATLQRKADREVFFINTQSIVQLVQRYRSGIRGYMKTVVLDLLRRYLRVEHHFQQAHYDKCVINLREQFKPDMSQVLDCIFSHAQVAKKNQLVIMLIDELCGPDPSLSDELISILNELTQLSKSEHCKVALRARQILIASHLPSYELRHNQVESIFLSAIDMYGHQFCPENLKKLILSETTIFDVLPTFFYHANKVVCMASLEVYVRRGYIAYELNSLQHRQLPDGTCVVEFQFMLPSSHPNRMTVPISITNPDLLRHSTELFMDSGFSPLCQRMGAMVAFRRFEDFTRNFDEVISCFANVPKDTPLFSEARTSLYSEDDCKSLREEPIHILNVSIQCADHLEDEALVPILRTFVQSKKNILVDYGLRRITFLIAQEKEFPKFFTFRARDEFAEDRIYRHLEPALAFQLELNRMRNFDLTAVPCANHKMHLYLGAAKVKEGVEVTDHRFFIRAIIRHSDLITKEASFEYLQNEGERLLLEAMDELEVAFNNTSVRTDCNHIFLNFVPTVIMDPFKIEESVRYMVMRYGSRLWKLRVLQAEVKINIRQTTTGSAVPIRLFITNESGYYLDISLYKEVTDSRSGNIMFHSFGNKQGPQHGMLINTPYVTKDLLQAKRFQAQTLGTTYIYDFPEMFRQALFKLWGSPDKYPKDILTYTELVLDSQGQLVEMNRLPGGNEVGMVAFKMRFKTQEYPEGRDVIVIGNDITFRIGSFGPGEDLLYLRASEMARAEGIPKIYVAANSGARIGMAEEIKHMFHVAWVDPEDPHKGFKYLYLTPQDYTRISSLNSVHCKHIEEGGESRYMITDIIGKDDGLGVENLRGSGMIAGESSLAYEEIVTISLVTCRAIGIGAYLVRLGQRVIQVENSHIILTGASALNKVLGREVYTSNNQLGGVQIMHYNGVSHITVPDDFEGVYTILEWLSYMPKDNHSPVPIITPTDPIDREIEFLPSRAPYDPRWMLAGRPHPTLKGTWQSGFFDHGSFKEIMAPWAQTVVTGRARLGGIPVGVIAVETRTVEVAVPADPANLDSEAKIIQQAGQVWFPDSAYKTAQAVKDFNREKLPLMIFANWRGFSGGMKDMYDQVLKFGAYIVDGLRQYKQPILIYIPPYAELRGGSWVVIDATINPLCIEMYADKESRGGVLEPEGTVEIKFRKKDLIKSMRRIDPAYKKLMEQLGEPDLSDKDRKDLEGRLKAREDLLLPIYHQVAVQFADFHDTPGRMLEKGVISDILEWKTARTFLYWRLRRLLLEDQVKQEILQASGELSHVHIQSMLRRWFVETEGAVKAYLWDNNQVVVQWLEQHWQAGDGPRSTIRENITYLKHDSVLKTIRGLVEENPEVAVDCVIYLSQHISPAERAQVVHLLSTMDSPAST

Q: COc1ccccc1C(Cn1c(=O)n(C(C)(C)C(=O)O)c(=O)c2c(C)c(-c3ncco3)sc21)OC1CCN(C(C)=O)CC1 (stereo not shown) [Example 20, 2-(1-(2-((1-acetylpiperidin-4-yl)oxy)-2-(2-methoxyphenyl)ethyl)-5-methyl-6-(oxazol-2-yl)-2,4-dioxo-1,4-dihydrothieno[2,3-d]pyrimidin-3(2H)-yl)-2-methylpropionic Acid] was tested. Which IC50 [1] did it give?
A: 8.03 nM

Q: And the IC50 [2]?
A: 0.91 nM

Q: COc1ccccc1C(Cn1c(=O)n(C(C)(C)C(=O)O)c(=O)c2c(C)c(-c3ncco3)sc21)OC1CCN(C)CC1 (stereo not shown) [Example 19, 2-(1-(2-(2-methoxyphenyl)-2-((1-methylpiperidin-4-yl)oxy)ethyl)-5-methyl-6-(oxazol-2-yl)-2,4-dioxo-1,4-dihydrothieno[2,3-d]pyrimidin-3(2H)-yl)-2-methylpropionic Acid] was tested. Which IC50 [2] did it give?
A: 23.3 nM

Q: Which results are given for COc1ccccc1C(Cn1c(=O)n(-c2cccc(C(=O)O)c2F)c(=O)c2c(C)c(-c3ncco3)sc21)OC1CCOCC1 (stereo not shown) [Example 28, 2-Fluoro-3-(1-(2-(2-methoxyphenyl)-2-((tetrahydro-2H-pyran-4-yl)oxy)ethyl)-5-methyl-6-(oxazol-2-yl)-2,4-dioxo-1,4-dihydrothieno[2,3-d]pyrimidin-3(2H)-yl)benzoic Acid]?
A: IC50 [1]: 7.8 nM; IC50 [2]: 1.48 nM

Q: With COc1ccccc1C(Cn1c(=O)n(C2CN(C(=O)c3ncc[nH]3)C2)c(=O)c2c(C)c(-c3ncco3)sc21)OC1CCOCC1 (stereo not shown) [Example 14] as the compound, how does the IC50 [1] read?
A: 7.85 nM

Q: What about the IC50 [2] of the same compound?
A: 1.69 nM

Q: With COc1ccccc1C(Cn1c(=O)n(C2CN(S(C)(=O)=O)C2)c(=O)c2c(C)c(-c3ncco3)sc21)OC1CCOCC1 (stereo not shown) [Example 9, 1-(2-(2-methoxyphenyl)-2-((tetrahydro-2H-pyran-4-yl)oxy)ethyl)-5-methyl-3-(1-(methylsulfonyl)azetidin-3-yl)-6-(oxazol-2-yl)thieno[2,3-d]pyrimidine-2,4(1H,3H)-dione] as the compound, how does the IC50 [1] read?
A: 7.92 nM

Q: And the IC50 [2]?
A: 2.03 nM

Q: With COc1ccccc1C(Cn1c(=O)n(-c2cc(C(=O)O)ccc2OC)c(=O)c2c(C)c(-c3ncco3)sc21)OC1CCOCC1 (stereo not shown) [Example 27] as the compound, how does the IC50 [2] read?
A: 11.8 nM

Q: For COc1ccccc1C(Cn1c(=O)n(C(C)(C)C(=O)O)c(=O)c2c(C)c(-c3ncco3)sc21)OC1CCN(C(=O)C2CC2)CC1 (stereo not shown) [Example 21], which IC50 [2] is on record?
A: 0.7 nM

Q: How did the IC50 [1] turn out when COc1ccccc1C(Cn1c(=O)n(C2CNC2)c(=O)c2c(C)c(-c3ncco3)sc21)OC1CCOCC1 (stereo not shown) [Example 6, 3-(azetidin-3-yl)-1-(2-(2-methoxyphenyl)-2-((tetrahydro-2H-pyran-4-yl)oxy)ethyl)-5-methyl-6-(oxazol-2-yl)thieno[2,3-d]pyrimidine-2,4(1H,3H)-dione] was run?
A: 9.64 nM

Q: And the IC50 [2]?
A: 2.81 nM

Q: Which IC50 [2] does the source give for COc1ccccc1C(Cn1c(=O)n(C2CN(C(=O)N3CC(C)(C(=O)O)C3)C2)c(=O)c2c(C)c(-c3ncco3)sc21)OC1CCOCC1 (stereo not shown) [Example 15, 1-(3-(1-(2-(2-methoxyphenyl)-2-((tetrahydro-2H-pyran-4-yl)oxy)ethyl)-5-methyl-6-(oxazol-2-yl)-2,4-dioxo-1,2-dihydrothieno[2,3-d]pyrimidin-3 (4H)-yl)azetidine-1-carbonyl)-3-methylazetidine-3-carboxylic Acid] here?
A: 8.79 nM

Q: For COc1ccccc1C(Cn1c(=O)n(C2CN(C(=O)c3ccccc3)C2)c(=O)c2c(C)c(-c3ncco3)sc21)OC1CCOCC1 (stereo not shown) [Example 11, 3-(1-benzoylazetidin-3-yl)-1-(2-(2-methoxyphenyl)-2-((tetrahydro-2H-pyran-4-yl)oxy)ethyl)-5-methyl-6-(oxazol-2-yl)thieno[2,3-d]pyrimidine-2,4(1H,3H)-dione], which IC50 [2] is on record?
A: 4.5 nM

Q: Which IC50 [2] does the source give for COc1ccccc1C(Cn1c(=O)n(-c2c(C)ccn3ccnc23)c(=O)c2c(C)c(-c3ncco3)sc21)OC1CCOCC1 (stereo not shown) [Example 5, 1-(2-(2-methoxyphenyl)-2-((tetrahydro-2H-pyran-4-yl)oxy)ethyl)-5-methyl-3-(7-methylimidazo[1,2-a]pyridin-8-yl)-6-(oxazol-2-yl)thieno[2,3-d]pyrimidine-2,4(1H, 3H)-diketone] here?
A: 38.5 nM

Q: How did the IC50 [1] turn out when COc1ccccc1[C@H](Cn1c(=O)n([C@H]2C[C@](C)(C(=O)O)C2)c(=O)c2c(C)c(-c3ncco3)sc21)OC1CCOCC1 [Example 3, (1R,3r)-3-(1-((R)-2-(2-methoxyphenyl)-2-((tetrahydro-2H-pyran-4-yl)oxy)ethyl)-5-methyl-6-(oxazol-2-yl)-2,4-dioxo-1,4-dihydrothieno[2,3-d]pyrimidine-3(2H)-yl)-1-methylcyclobutanecarboxylic Acid] was run?
A: 11.9 nM

Q: What about the IC50 [2] of the same compound?
A: 1 nM

Q: COc1ccccc1C(Cn1c(=O)n(-c2cc(C(=O)O)ccc2F)c(=O)c2c(C)c(-c3ncco3)sc21)OC1CCOCC1 (stereo not shown) [Example 30, 4-Fluoro-3-(1-(2-(2-methoxyphenyl)-2-((tetrahydro-2H-pyran-4-yl)oxy)ethyl)-5-methyl-6-(oxazol-2-yl)-2,4-dioxo-1,4-dihydrothieno[2,3-d]pyrimidin-3(2H)-yl)benzoic Acid] was tested. Which IC50 [2] did it give?
A: 7.97 nM

Q: COc1ccccc1C(Cn1c(=O)n(C(C)(C)C(=O)O)c(=O)c2c(C)c(-c3ncco3)sc21)OC1CN(C(C)=O)C1 (stereo not shown) [Example 23] was tested. Which IC50 [2] did it give?
A: 11.5 nM

Q: How did the IC50 [1] turn out when COc1ccccc1C(Cn1c(=O)n(C2CN(C(=O)N3CCOCC3)C2)c(=O)c2c(C)c(-c3ncco3)sc21)OC1CCOCC1 (stereo not shown) [Example 12, 1-(2-(2-methoxyphenyl)-2-((tetrahydro-2H-pyran-4-yl)oxy)ethyl)-5-methyl-3-(1-(morpholine-4-formyl)azetidin-3-yl)-6-(oxazol-2-yl)thieno[2,3-d]pyrimidine-2,4(1H,3H)-dione] was run?
A: 8.04 nM

Q: And the IC50 [2]?
A: 1.22 nM

Q: With COc1ccccc1C(Cn1c(=O)n(-c2cccc(C(=O)O)c2OC)c(=O)c2c(C)c(-c3ncco3)sc21)OC1CCOCC1 (stereo not shown) [Example 29, 2-Methoxy-3-(1-(2-(2-methoxyphenyl)-2-((tetrahydro-2H-pyran-4-yl)oxy)ethyl)-5-methyl-6-(oxazol-2-yl)-2,4-dioxo-1,4-dihydrothieno[2,3-d]pyrimidin-3(2H)-yl)benzoic Acid] as the compound, how does the IC50 [1] read?
A: 14.1 nM

Q: What about the IC50 [2] of the same compound?
A: 2.13 nM

Q: For COc1ccccc1C(Cn1c(=O)n(C2CC(OCCF)C2)c(=O)c2c(C)c(-c3ncco3)sc21)OC1CCOCC1 (stereo not shown) [Example 31], which IC50 [2] is on record?
A: 136 nM

Q: How did the IC50 [1] turn out when COc1ccccc1C(Cn1c(=O)n(C2CN(C(=O)C3CC3)C2)c(=O)c2c(C)c(-c3ncco3)sc21)OC1CCOCC1 (stereo not shown) [Example 8, 3-(1-(cyclopropanecarbonyl)azetidin-3-yl)-1-(2-(2-methoxyphenyl)-2-((tetrahydro-2H-pyran-4-yl)oxy)ethyl)-5-methyl-6-thieno[2,3-d]pyrimidine-2,4(1H,3H)-dione] was run?
A: 13.1 nM

Q: And the IC50 [2]?
A: 1.12 nM

Q: For COc1ccccc1C(Cn1c(=O)n(C(C)(C)C(=O)O)c(=O)c2c(C)c(-c3ncco3)sc21)OC1CCN(S(C)(=O)=O)CC1 (stereo not shown) [Example 22], which IC50 [1] is on record?
A: 5.13 nM

Q: And the IC50 [2]?
A: 0.63 nM

Q: How did the IC50 [1] turn out when COc1ccccc1C(Cn1c(=O)n(C2CN(C(=O)c3ccccn3)C2)c(=O)c2c(C)c(-c3ncco3)sc21)OC1CCOCC1 (stereo not shown) [Example 13, 1-(2-(2-methoxyphenyl)-2-((tetrahydro-2H-pyran-4-yl)oxy)ethyl)-5-methyl-6-(oxazol-2-yl)-3-(1-pyridineformylazetidin-3-yl)thieno[2,3-d]pyrimidine-2,4(1H,3H)-dione] was run?
A: 11.6 nM

Q: What about the IC50 [2] of the same compound?
A: 2.33 nM

Q: With COc1ccccc1C(Cn1c(=O)n(C2CN(C(=O)N3CC(C)(O)C3)C2)c(=O)c2c(C)c(-c3ncco3)sc21)OC1CCOCC1 (stereo not shown) [Example 16, 3-(1-(3-Hydroxy-3-methylazetidin-1-oyl)azetidin-3-yl)-1-(2-(2-methoxyphenyl)-2-((tetrahydro-2H-pyran-4-yl)oxy)ethyl)-5-methyl-6-(oxazol-2-yl)thieno[2,3-d]pyrimidine-2,4(1H,3H)-dione] as the compound, how does the IC50 [2] read?
A: 6.89 nM

Q: What does the source list for COc1ccccc1C(Cn1c(=O)n(-c2ccc(C(=O)O)cc2OC)c(=O)c2c(C)c(-c3ncco3)sc21)OC1CCOCC1 (stereo not shown) [Example 26, 3-methoxy-4-(1-(2-(2-methoxyphenyl)-2-((tetrahydro-2H-pyran-4-yl)oxy)ethyl)-5-methyl-6-(oxazol-2-yl)-2,4-dioxo-1,4-dihydrothieno[2,3-d]pyrimidin-3(2H)-yl)benzoic Acid]?
A: IC50 [1]: 10.3 nM; IC50 [2]: 0.87 nM

Q: How did the IC50 [2] turn out when COc1ccccc1C(Cn1c(=O)n(C(C)(C)C(=O)O)c(=O)c2c(C)c(-c3ncco3)sc21)N1CCCCC1 (stereo not shown) [Example 18, 2-(1-(2-(2-methoxyphenyl)-2-(piperidin-1-yl)ethyl)-5-methyl-6-(oxazol-2-yl)-2,4-dioxo-1,4-dihydrothieno[2,3-d]pyrimidin-3(2H)-yl)-2-methylpropionic Acid] was run?
A: > 1000 nM

Q: For COc1ccccc1C(Cn1c(=O)n(C2CC(F)(F)C2)c(=O)c2c(C)c(-c3ncco3)sc21)OC1CCOCC1 (stereo not shown) [Example 2, 3-(3,3-Difluorocyclobutyl)-1-(2-(2-methoxyphenyl)-2-((tetrahydro-2H-pyran-4-yl)oxy)ethyl)-5-methyl-6-(oxazol-2-yl)thieno[2,3-d]pyrimidine-2,4(1H,3H)-dione], which IC50 [2] is on record?
A: 8.7 nM

Q: With COc1ccccc1C(Cn1c(=O)n(C(C)(C)C(=O)O)c(=O)c2c(C)c(-c3ncco3)sc21)OC1CCNCC1 (stereo not shown) [Example 17] as the compound, how does the IC50 [2] read?
A: 7.66 nM
